# Assay results taken from patent US20110230472A1, “RING-FUSED AZOLE DERIVATIVE HAVING PI3K-INHIBITING ACTIVITY” (Shionogi & Co., Ltd., priority 2008, published 2011).
# Molecular target: PI-3 kinase γ (Homo sapiens, UniProt P48736)
# Assay: PI3Kγ inhibitory activity, PI3-kinase HTRF assay (inhibition ratio)
# Type: biochemical
# Conditions: 0.5 h
# How it was run: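 PI3Kγ preincubated 10 min with compound and PIP2 substrate (MgCl2, DTT), then ATP added for 30 min at room temperature. PIP3 detected by HTRF (665/620 nm ratio) after 18 h. Inhibition ratio at 50 or 10 μmol/L, normalised to no-compound and no-enzyme controls.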
# PI-3 kinase γ, sequence (P48736 whole entry): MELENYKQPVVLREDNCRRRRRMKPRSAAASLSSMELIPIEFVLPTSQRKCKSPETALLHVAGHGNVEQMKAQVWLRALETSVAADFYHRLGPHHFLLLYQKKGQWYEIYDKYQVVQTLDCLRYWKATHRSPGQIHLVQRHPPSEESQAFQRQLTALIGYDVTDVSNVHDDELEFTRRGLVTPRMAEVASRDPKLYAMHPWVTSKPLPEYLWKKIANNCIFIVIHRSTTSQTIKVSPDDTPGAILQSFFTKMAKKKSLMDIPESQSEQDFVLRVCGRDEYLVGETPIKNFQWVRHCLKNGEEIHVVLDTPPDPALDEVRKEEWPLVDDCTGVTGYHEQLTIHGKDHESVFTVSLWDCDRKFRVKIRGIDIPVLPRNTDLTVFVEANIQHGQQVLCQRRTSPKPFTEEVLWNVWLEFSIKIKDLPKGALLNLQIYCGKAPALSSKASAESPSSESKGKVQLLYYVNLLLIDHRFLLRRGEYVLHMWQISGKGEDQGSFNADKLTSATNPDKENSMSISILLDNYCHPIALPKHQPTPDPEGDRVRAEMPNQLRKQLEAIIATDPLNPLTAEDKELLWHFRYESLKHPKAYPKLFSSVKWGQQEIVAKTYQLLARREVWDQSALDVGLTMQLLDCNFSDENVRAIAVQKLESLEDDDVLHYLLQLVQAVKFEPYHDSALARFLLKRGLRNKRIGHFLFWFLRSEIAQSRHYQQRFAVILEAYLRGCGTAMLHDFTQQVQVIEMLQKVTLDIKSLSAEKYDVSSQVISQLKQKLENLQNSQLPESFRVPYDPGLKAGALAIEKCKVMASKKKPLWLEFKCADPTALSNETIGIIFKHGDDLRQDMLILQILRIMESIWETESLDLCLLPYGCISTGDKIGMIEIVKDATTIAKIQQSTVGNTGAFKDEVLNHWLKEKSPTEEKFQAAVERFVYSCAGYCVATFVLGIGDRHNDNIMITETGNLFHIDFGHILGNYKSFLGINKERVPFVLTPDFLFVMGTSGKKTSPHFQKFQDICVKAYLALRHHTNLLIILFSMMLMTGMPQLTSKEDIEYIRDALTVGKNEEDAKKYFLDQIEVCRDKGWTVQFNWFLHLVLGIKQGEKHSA
smiles,measurement,setting,value
CN1CCc2cc(N3CCn4nc(NC(=O)c5csc(C(=O)NC(C)(C)C)c5)cc43)ccc2C1=O [Compound I-438],inhibition at 10 µM,compound at 10 μmol/L,86%
CN1CCc2cc(N3CCn4nc(NC(=O)c5csc(C(=O)OC(C)(C)C)c5)cc43)ccc2C1=O [Compound I-413],inhibition at 10 µM,compound at 10 μmol/L,87%
CN1CCc2cc(N3CCn4nc(NC(=O)c5ccc(S(C)(=O)=O)s5)cc43)ccc2C1=O [Compound I-344],inhibition at 10 µM,compound at 10 μmol/L,80%
Cc1csc(C(=O)Nc2cc3n(n2)CCN3c2ccc3c(c2)CCN(C)C3=O)c1 [Compound I-361],inhibition at 10 µM,compound at 10 μmol/L,80%
CN1CCc2cc(N3CCn4nc(NC(=O)NCCC(=O)O)cc43)ccc2C1=O [Compound I-537],inhibition at 10 µM,compound at 10 μmol/L,87%
COC(=O)Nc1ccccc1C(=O)Nc1cc2n(n1)CCN2c1ccc2c(c1)CCN(C)C2=O [Compound I-482],inhibition at 10 µM,compound at 10 μmol/L,≥ 95%
COc1cc(N2CCc3nc(NC(=O)NC4CCCCC4)sc3C2)nc(OC)n1 [Compound I-294],inhibition at 10 µM,compound at 10 μmol/L,84%
CN1CCc2cc(N3CCn4nc(NC(=O)c5cccc(O)c5)cc43)ccc2C1=O [Compound I-461],inhibition at 10 µM,compound at 10 μmol/L,95%
CNC(=O)Nc1cc2n(n1)CCN2c1cc(Br)cc(C(=O)OC(C)(C)C)c1 [Compound I-167],inhibition at 50 µM,"PI3Kγ, compound at 50 μM",92%
CNc1ccccc1C(=O)Nc1cc2n(n1)CCN2c1ccc2c(c1)CCN(C)C2=O [Compound I-494],inhibition at 10 µM,compound at 10 μmol/L,78%
CNC(=O)Nc1nc2c(s1)CN(c1cc(C(=O)NCCO)nc(Cl)n1)CC2 [Compound I-170],inhibition at 50 µM,"PI3Kγ, compound at 50 μM",≥ 95%
CNC(=O)Nc1cc2n(n1)CCN2c1ccc(C(=O)O)c(OC)c1 [Compound I-148],inhibition at 50 µM,"PI3Kγ, compound at 50 μM",≥ 95%
CC(C)Oc1cccc(C(=O)Nc2cc3n(n2)CCN3c2ccc3c(c2)CCN(C)C3=O)c1 [Compound I-463],inhibition at 10 µM,compound at 10 μmol/L,≥ 95%
COc1cc(N2CCc3nc(NC(=O)NCCC(=O)N(C)C(C)(C)C)sc3C2)nc(OC)n1 [Compound I-270],inhibition at 10 µM,"PI3Kγ, compound at 10 μM",≥ 95%
CNC(=O)Nc1nc2c(s1)CN(c1cc(C(=O)O)nc(Cl)n1)CC2 [Compound I-101],inhibition at 50 µM,"PI3Kγ, compound at 50 μM",≥ 95%
CNC(=O)Nc1nc2c(s1)CN(c1cc(Oc3ccccc3)nc(OCCCO)n1)CC2 [Compound I-263],inhibition at 10 µM,"PI3Kγ, compound at 10 μM",≥ 95%
CN1CCc2cc(N3CCn4nc(NC(=O)c5csc(Br)c5)cc43)ccc2C1=O [Compound I-396],inhibition at 10 µM,compound at 10 μmol/L,76%
CNC(=O)Nc1cc2n(n1)CCN2C(=O)c1nc2ccccc2s1 [Compound I-40],inhibition at 50 µM,"PI3Kγ, compound at 50 μM",73%
CNC(=O)Nc1cc2n(n1)CCN2c1cc(C(=O)OC)nc(Cl)n1 [Compound I-127],inhibition at 50 µM,"PI3Kγ, compound at 50 μM",79%
Nc1cc(N2CCc3nc(NC(=O)c4cccc(Cl)c4)sc3C2)nc(Cl)n1 [Compound I-137],inhibition at 50 µM,"PI3Kγ, compound at 50 μM",87%
COc1nc(Cl)cc(N2CCc3nc(NC(C)=O)sc3C2)n1 [Compound I-334],inhibition at 10 µM,compound at 10 μmol/L,88%
CNC(=O)Nc1cc2n(n1)CCN2C(=O)c1ccccc1 [Compound I-5],inhibition at 50 µM,"PI3Kγ, compound at 50 μM",89%
CC(C)(C)OC(=O)N1CCn2nc(NC(=O)NCC(=O)O)cc21 [Compound I-59],inhibition at 50 µM,"PI3Kγ, compound at 50 μM",94%
CC(C)CNC(=O)c1ccc(C(=O)Nc2cc3n(n2)CCN3c2ccc3c(c2)CCN(C)C3=O)cc1 [Compound I-534],inhibition at 10 µM,compound at 10 μmol/L,91%
CNC(=O)Nc1cc2n(n1)CCN2c1ccc2c(c1)CCNC2=O [Compound I-194],inhibition at 50 µM,"PI3Kγ, compound at 50 μM",95%
COc1cc(N2CCc3nc(NC(=O)[C@H](O)c4ccccc4)sc3C2)nc(OC)n1 [Compound I-257],inhibition at 50 µM,"PI3Kγ, compound at 50 μM",83%
CNC(=O)Nc1cc2n(n1)CCN2c1cc(C(=O)N2CCOCC2)cc(C2CCCCC2)c1 [Compound I-267],inhibition at 50 µM,"PI3Kγ, compound at 50 μM",≥ 95%
CNC(=O)Nc1cc2n(n1)CCN2c1cc(Br)cc(C(=O)NCCOC)c1 [Compound I-183],inhibition at 50 µM,"PI3Kγ, compound at 50 μM",≥ 95%
CN1CCc2cc(N3CCn4nc(NC(=O)c5cnc(NC(=O)OC(C)(C)C)o5)cc43)ccc2C1=O [Compound I-376],inhibition at 10 µM,compound at 10 μmol/L,≥ 95%
CNC(=O)Nc1cc2n(n1)CCN2c1cc(Br)cc(C(=O)OC)c1 [Compound I-146],inhibition at 50 µM,"PI3Kγ, compound at 50 μM",≥ 95%
CC(=O)Nc1cc2n(C(=O)OC(C)(C)C)ccn2n1 [Compound I-7],inhibition at 50 µM,"PI3Kγ, compound at 50 μM",≥ 95%
CNC(=O)Nc1cc2n(n1)CCN2c1cccc(S(C)(=O)=O)c1 [Compound I-191],inhibition at 50 µM,"PI3Kγ, compound at 50 μM",≥ 95%
CNC(=O)Nc1nc2c(s1)CN(c1cc(Cl)nc(OC)n1)CC2 [Compound I-333],inhibition at 10 µM,compound at 10 μmol/L,88%
CN1CCc2cc(N3CCn4nc(NC(=O)C5CCNC5)cc43)ccc2C1=O (stereo not drawn) [Compound I-355],inhibition at 50 µM,compound at 50 μmol/L,92%
COc1cc(N2CCc3nc(NC(=O)Nc4cccc(C(=O)OC(C)(C)C)c4)sc3C2)nc(OC)n1 [Compound I-321],inhibition at 10 µM,compound at 10 μmol/L,95%
CN1CCc2cc(N3CCn4nc(NC(=O)c5ccc(Br)s5)cc43)ccc2C1=O [Compound I-365],inhibition at 50 µM,compound at 50 μmol/L,81%
CCOC(=O)c1cccc(N2CCn3nc(NC(=O)NC)cc32)c1 [Compound I-83],inhibition at 50 µM,"PI3Kγ, compound at 50 μM",≥ 95%
CC(=O)Nc1cc2n(n1)CCN2c1ccc2c(c1)CCNC2 [Compound I-305],inhibition at 50 µM,compound at 50 μmol/L,84%
CNC(=O)Nc1cc2n(n1)CCN2c1ccc(C(=O)N(C)C)s1 [Compound I-226],inhibition at 50 µM,"PI3Kγ, compound at 50 μM",≥ 95%
CS(=O)(=O)Nc1ccc(CC(=O)Nc2cc3n(n2)CCN3c2cccc(Cl)c2)cc1 [Compound I-243],inhibition at 50 µM,"PI3Kγ, compound at 50 μM",81%
CN1CCc2cc(N3CCn4nc(NC(=O)c5ccc(C(N)=O)s5)cc43)ccc2C1=O [Compound I-404],inhibition at 10 µM,compound at 10 μmol/L,78%
CN1CCc2cc(N3CCn4nc(NC(=O)c5cnc(N)o5)cc43)ccc2C1=O [Compound I-381],inhibition at 10 µM,compound at 10 μmol/L,≥ 95%
CN1CCc2cc(N3CCn4nc(NC(=O)c5ccccc5N)cc43)ccc2C1=O [Compound I-500],inhibition at 10 µM,compound at 10 μmol/L,81%
COc1cc(N2CCc3nc(NC(=O)NCCC(=O)N4[C@H](C)CCC[C@@H]4C)sc3C2)nc(OC)n1 [Compound I-271],inhibition at 10 µM,"PI3Kγ, compound at 10 μM",≥ 95%
CN1CCc2cc(N3CCn4nc(NC(=O)NCc5ccccc5)cc43)ccc2C1=O [Compound I-370],inhibition at 10 µM,compound at 10 μmol/L,84%
CNC(=O)Nc1cc2n(n1)CCN2c1cccc(-c2cnc(C)o2)c1 [Compound I-164],inhibition at 50 µM,"PI3Kγ, compound at 50 μM",≥ 95%
CN1CCc2cc(N3CCn4nc(NC(=O)c5ccc(N)cc5)cc43)ccc2C1=O [Compound I-489],inhibition at 10 µM,compound at 10 μmol/L,≥ 95%
CC(=O)Nc1cc2n(n1)CCN2c1ccc2c(c1)CCC(=O)N2 [Compound I-335],inhibition at 10 µM,compound at 10 μmol/L,≥ 95%
CN1CCc2cc(N3CCn4nc(NC(=O)Nc5ccsc5)cc43)ccc2C1=O [Compound I-368],inhibition at 10 µM,compound at 10 μmol/L,95%
CN1CCc2cc(N3CCn4nc(NC(=O)c5csc(S(=O)(=O)N6CCCC6)c5)cc43)ccc2C1=O [Compound I-436],inhibition at 10 µM,compound at 10 μmol/L,≥ 95%
Cc1cccc(C(=O)N2CCc3nc(NC(=O)Nc4ccccc4C(=O)NC(C)C)sc3C2)c1 [Compound I-514],inhibition at 10 µM,compound at 10 μmol/L,76%
CNC(=O)Nc1nc2c(s1)CN(c1nccc(OC)n1)CC2 [Compound I-93],inhibition at 50 µM,"PI3Kγ, compound at 50 μM",92%
CNC(=O)c1ccc(C(=O)Nc2cc3n(n2)CCN3c2ccc3c(c2)CCN(C)C3=O)s1 [Compound I-406],inhibition at 10 µM,compound at 10 μmol/L,≥ 95%
CCOc1ccc(C(=O)Nc2nc3c(s2)CN(c2cc(OC)nc(OC)n2)CC3)o1 [Compound I-457],inhibition at 10 µM,compound at 10 μmol/L,88%
CC(=O)Nc1cc2n(n1)CCN2c1ccc2c(c1)CCN(C(=O)OC(C)(C)C)C2 [Compound I-301],inhibition at 50 µM,compound at 50 μmol/L,≥ 95%
CN1CCc2cc(N3CCn4nc(NC(=O)c5ccc(C(=O)NCC(=O)OC(C)(C)C)s5)cc43)ccc2C1=O [Compound I-411],inhibition at 10 µM,compound at 10 μmol/L,≥ 95%
CN1CCc2cc(N3CCn4nc(NC(=O)c5ccc(NC(=O)OC(C)(C)C)cc5)cc43)ccc2C1=O [Compound I-480],inhibition at 10 µM,compound at 10 μmol/L,86%
COc1cc(N2CCc3nc(NC(=O)Cc4ccccc4C(=O)NC(C)(C)C)sc3C2)nc(OC)n1 [Compound I-337],inhibition at 10 µM,compound at 10 μmol/L,82%
COc1cccc(N2CCn3nc(NC(=O)CCCCC(=O)O)cc32)c1 [Compound I-315],inhibition at 10 µM,compound at 10 μmol/L,≥ 95%
CC(=O)Nc1cc2n(n1)CCN2c1ccc2c(c1)CCCN2C(=O)OC(C)(C)C [Compound I-306],inhibition at 10 µM,compound at 10 μmol/L,≥ 95%
CC(C)NC(=O)Cc1cc(C(=O)Nc2cc3n(n2)CCN3c2ccc3c(c2)CCN(C)C3=O)cs1 [Compound I-495],inhibition at 10 µM,compound at 10 μmol/L,≥ 95%
CNC(=O)Nc1cc2n(n1)CCN2c1ccc(C(=O)N(C)C)cc1 [Compound I-169],inhibition at 50 µM,"PI3Kγ, compound at 50 μM",≥ 95%
CNC(=O)Nc1nc2c(s1)CN(c1cc(Oc3ccccc3)nc(SC)n1)CC2 [Compound I-147],inhibition at 50 µM,"PI3Kγ, compound at 50 μM",≥ 95%
COc1cc(N2CCc3nc(NC(=O)Nc4ccc(C(C)(C)C)cc4)sc3C2)nc(OC)n1 [Compound I-289],inhibition at 10 µM,compound at 10 μmol/L,90%
CNC(=O)Nc1nc2c(s1)CN(C(=O)OC(C)(C)C)CC2 [Compound I-66],inhibition at 50 µM,"PI3Kγ, compound at 50 μM",92%
COC(=O)Nc1cc[nH]c1C(=O)Nc1cc2n(n1)CCN2c1cccc(OC)c1 [Compound I-364],inhibition at 10 µM,compound at 10 μmol/L,≥ 95%
CN1CCc2cc(N3CCn4nc(NC(=O)c5sccc5Cl)cc43)ccc2C1=O [Compound I-445],inhibition at 10 µM,compound at 10 μmol/L,89%
CC(C)NC(=O)c1ccccc1NC(=O)Nc1nc2c(s1)CN(C(=O)c1cccc(Cl)c1)CC2 [Compound I-511],inhibition at 10 µM,compound at 10 μmol/L,75%
CN1CCc2cc(N3CCn4nc(NC(=O)c5ccc6[nH]cnc6c5)cc43)ccc2C1=O [Compound I-349],inhibition at 10 µM,compound at 10 μmol/L,≥ 95%
CNC(=O)Nc1nc2c(s1)CN(c1cc(C(=O)NC)nc(Cl)n1)CC2 [Compound I-119],inhibition at 50 µM,"PI3Kγ, compound at 50 μM",≥ 95%
CNC(=O)Nc1nc2c(s1)CN(c1cc(Oc3ccccc3)nc(OCCCOCc3ccccc3)n1)CC2 [Compound I-232],inhibition at 50 µM,"PI3Kγ, compound at 50 μM",76%
CN1CCc2cc(N3CCn4nc(NC(=O)c5cccc(C(=O)OC(C)(C)C)c5)cc43)ccc2C1=O [Compound I-465],inhibition at 10 µM,compound at 10 μmol/L,≥ 95%
O=C(O)CCNC(=O)Nc1cc2n(n1)CCN2c1cccc(Cl)c1 [Compound I-215],inhibition at 50 µM,"PI3Kγ, compound at 50 μM",≥ 95%
CC(C)NC(=O)Nc1cccc(C(=O)Nc2cc3n(n2)CCN3c2ccc3c(c2)CCN(C)C3=O)c1 [Compound I-470],inhibition at 10 µM,compound at 10 μmol/L,79%
CN1CCc2cc(N3CCn4nc(NC(=O)c5cccc(OC(C)(C)C(=O)OC(C)(C)C)c5)cc43)ccc2C1=O [Compound I-469],inhibition at 10 µM,compound at 10 μmol/L,85%
